In experiment [1] the test system is astrocyte-enriched cortical cell cultures. As to the kind of experiment: Effect of PAF antagonists on mc-PAF-, lyso-PAF- and AA-induced PGE2 release from astrocytes. It is filed as cell-based, rat. To be noted: for mc-PAF-induced PGE2 release: antagonist added 30 min before mc-PAF (1 μM), 30 min, BN 50730 0.1-100 μM, BN 52021 and CV 6209 1-50 μM; for AA-induced PGE2 release / lyso-PAF-induced PGE2 release: antagonist added 30 min prior. On the procedure:
All experimental protocols were approved by the Massachusetts Institute of Technology institutional review committee and meet the guidelines of the National Institutes of Health. Dissociated astrocytes were cultured from cortices of postnatal day 1-2 rat pups (as described by K. D. McCarthy, et al., Preparation of separate astroglial and oligodendroglial cell cultures from rat cerebral tissue, J. Cell Biol. 85 (1980) 890-902, with minor modifications R. K. K. Lee, et al., Metabolic glutamate receptors increase amyloid precursor protein processing in astrocytes: inhibition by cyclic AMP, J. Neurochem. 68 (1997) 1830-1835.) In brief, cells from dissociated cortices were plated onto poly-L-lysine coated 35- or 100 mm culture dishes. The initial culture media, minimal essential medium (MEM, Gibco-Life Technologies; Rockville, Md.) containing 15% horse serum (BioWhittaker; Walkersville, Md.), were aspirated 2-5 h after plating to remove unattached cells and debris, and replaced with MEM containing 5% fetal bovine serum (FBS, BioWhittaker; Walkersville, Md.). Half the medium was replaced with MEM/5% FBS twice weekly. Astrocytes were kept at 37° C. in a humidified 5% CO2/95% air incubator for 9-15 days, by which time the cultures were confluent and could be used for experiments.
Mc-PAF (Biomol; Plymouth Meeting, PA) was dissolved in methanol at a stock concentration of 10 mM. PAF-16, PAF-18, lyso-PAF, AA (Cayman Chemicals), lyso-PC and PC (Sigma) were dissolved in ethanol at stock concentrations of 10 mM. All stock solutions of lipids were stored at −80° C. and were used within 6 weeks of reconstitution. BN 52021 and CV 6209 (Biomol) were dissolved in ethanol. These PAF antagonists were stored at −20° C. in stock concentrations of 100 mM. BN 50730 (Biomeasure; Milford, Mass.) was dissolved in 45% hydroxy-B-cyclodextrin (HBC). All agents were diluted in warned serum-free medium prior to cell stimulation. Equal amounts of vehicle was added to control cells.
Cells used for all experiments were established in vitro 9-15 days prior to use in experiments and were over 95% confluent. Serum-containing media were changed every 3-4 days. Cells were serum-deprived 24 hours prior to experimental treatments. Where treatment with PAF antagonists is indicated, these compounds were added 30 minutes prior to the addition of other agents.
PGE2 levels were measured by ELISA according to manufacturer's instructions (Cayman Chemicals, Ann Arbor, Mich.). Since the amount of PGE2 in fresh medium was negligible, (J. Luo, et al., Transforming growth factor B1 regulates the expression of cyclooxygenase in cultured cortical astrocytes and neurons, J. Neurochem. 71 (1998) 526-534), direct assays of the PGE2 concentration in cell-conditioned medium was used as a measurement of PGE2 secretion by cultured cells. Results were derived from at least 3 separate experiments, assayed in duplicate or triplicate (n=6-8). The reliable detection limit of this assay (i.e. sensitivity) averaged 14+/−6 pg of PGE2.

Experiment [2] concerns formalin-induced nociception. As to the kind of experiment: Formalin test, intra-hippocampal injection. It is filed as in vivo, rat. As to the method:
(§1) The day prior to formalin testing, rats were placed in the boxes for a 15 min habituation period. The day of testing, vehicle or PAF antagonists were administered and the rats were placed in the boxes for 20 min. At this time, animals were removed from the box, and 50 μl of 1% formalin (0.4% formaldehyde) was injected subcutaneously into the plantar surface of the right hind paw with a 27-gauge needle. Immediately after injection, each animal was exposed to the open field box for 60 min and the amount of time they elevated their injected paw was recorded as described for previous Examples.
(§2) Upon completion of testing, animals were overdosed with sodium pentobarbitol and perfused with saline followed by 10% formalin solution. Brains were removed, fixed, and cut into 20-μm coronal sections throughout the cannula tract. Sections were then mounted, stained with cresyl violet, and coverslipped. […] The behavioral data for 4 rats were discarded from the study due to incorrect cannulae placement.
(§3) Data were expressed as means+/−SEM and p values <0.05 were considered statistically significant. Experimental groups were compared using a one-way analysis of variance (ANOVA) with repeated measures (5 min blocks of time) followed by Scheffe's post-hoc test. Independent t-tests were used to assess the effects of the PAF antagonists on the individual 5 min bins of time post-formalin as well.

Experiment [3] relates to formalin-induced nociception. As to the kind of experiment: Formalin test, systemic (i.p.) administration. It is filed as in vivo, rat. The conditions noted are these: for nociceptive response (paw elevation time), early phase: 1-10 minutes post-formalin; for nociceptive response (paw elevation time), early phase / nociceptive response (paw elevation time), late phase: 10, 1 or 0.1 mg/kg i.p. 40 minutes prior to formalin; for nociceptive response (paw elevation time), late phase: 10-60 min post-formalin, vs control-treated rats; for dose-response relationship of decrease in nociceptive behavior: three doses 10, 1, 0.1 mg/kg i.p. As to the method:
Sixty male Sprague Dawley rats weighing 300-350 g (Taconic Labs, Canada) were housed in groups of 2-3 per cage, in polycarbonate cages. Animals were maintained under standard environmental conditions (room temperature: 20-20° C.; relative humidity: 55-60%; light/dark schedule: 12/12 hr) with free access to standard laboratory chow and tap water.
BN 50730 (Biomeasure; Milford, Mass.) and BN 52021 (Biomol) were dissolved in 45% hydroxypropyl-B-cyclodextrin in distilled water (HBC). Drugs (at doses of 10, 1, or 0.1 mg/kg) or vehicle were administered intraperitoneally (i.p.) 40 minutes prior to formalin injection. The doses chosen were based on those found to produce central effects after their peripheral administration.
Experiments were carried out in accordance with The National Institutes of Health Guide for the Care and Use of Laboratory Animals. Behavioral testing was carried out in a blind manner. Nociceptive responses were examined in the formalin test described previously, (Dubisson et al., The formalin test: a quantitative study of the analgesic effects of morphine, meperidine, and brain stimulation of rats and cats. Pain 4 (1977) 161-174). In brief, animals were placed in a clear Plexiglas® formalin test box (30 cm×30 cm×30 cm), with a mirror positioned at a 45° angle below the floor allowing for unobstructed observation of the animal's paw. Following a 10-min habituation period, animals were removed from the formalin box, at which time 50 μl of 1% formalin was injected subcutaneously (s.c.) into the plantar surface of the right hind paw with a 27-gauge needle. The amount of time that each rat elevated the injected paw was recorded in five-min intervals during the […] period following formalin injection. Each animal was used once.
The 60-min formalin test produced a biphasic response consisting of an initial, rapidly decaying acute phase (early phase, 1-10 minutes after injection) followed by a slow rising and long-lived tonic phase (late phase, 15-60 minutes after injection). Typically animals elevated their paws following injection (i.e. the early phase) followed by a reduction in this behavior. Approximately 15-20 minutes after injection, the inflammatory late phase began, and animals again elevated their paws to varying degrees for the remainder of the testing period. The amount of time animals elevated their injected paw was used as a behavioral measure of pain.
Data were expressed as means+/−SEM, and p values <0.05 were considered statistically significant. Treatment groups were compared with vehicle-controls using one-way analysis of variance (ANOVA) followed by Fischer's PLSD post-hoc test to compare between groups if overall significance was found by ANOVA.

Experiment [4] has as its system formalin-induced nociception. As to the kind of experiment: Formalin test, intrathecal injection (spinal cord). It is filed as in vivo, rat. To be noted: for nociceptive response: injected intrathecally (into the spinal cord), 10, 1 or 0.1 μg, 20 minutes prior to formalin. On the procedure:
as §1, §3

Experiment [5] deals with formalin-induced nociception. As to the kind of experiment: Formalin test, injection into the lateral ventricle. It is filed as in vivo, rat. The conditions noted are these: for nociceptive response (paw elevation), group effect: lateral ventricle, 10, 1 or 0.1 μg, 20 min prior to formalin, ANOVA. On the procedure: Animals were anesthetized (50 mg/kg sodium pentobarbitol), and unilateral guide cannulae (23 gauge) were implanted into the lateral ventricle. The guide cannulae were attached to the skull using jeweler's screws and dental acrylic. After surgery, stylets were inserted and left in place to ensure cannula patency. The formalin test was conducted 7-10 days post-surgery.
as §1, §2, §3

“Also recorded” adds a separate entry of the source.

In the case of `COc1ccc(NC(=S)N2CCc3c(sc4c3C(c3ccccc3Cl)=NCc3nnc(C)n3-4)C2)cc1` [BN 50730], in experiment [1], the “mc-PAF-induced PGE2 release” value is “attenuates; also recorded: prevented; also recorded: completely abolished”, the “AA-induced PGE2 release” value is reported as “significantly attenuated; also recorded: only attenuated; also recorded: attenuates” and the “lyso-PAF-induced PGE2 release” value was “significantly attenuated; also recorded: completely abolished; also recorded: attenuates”. Also, the “basal release of PGE2” value in experiment [1] (higher concentrations of BN 50730) is on record as “reduce the basal release of PGE2”. Further, the “nociceptive behavior during the tonic or late phase” value in experiment [2] is “not”. In addition, in experiment [3], the “nociceptive response (paw elevation time), early phase” value is recorded as “not significantly affected”; the “nociceptive response (paw elevation time), late phase” value is listed as “significantly shorter paw elevation times; also recorded: decreased nociceptive behavior”; the “dose-response relationship of decrease in nociceptive behavior” value is listed as “a dose-response relationship was not revealed”. Moreover, in experiment [4] (administered to the spinal cord (Example 4)), the “comparative efficacy when administered to the spinal cord” value is listed as “more effective than BN 52021”. In experiment [4], the nociceptive response entry was “decreased the nociceptive response”. Further, in experiment [5], the “nociceptive response (paw elevation), group effect” value was “not significantly affected”.

`C[C@@H]1C(=O)O[C@H]2[C@H](O)[C@@]34[C@H]5C[C@@H](C(C)(C)C)[C@]36[C@@H](OC(=O)[C@@H]6O)O[C@@]4(C(=O)O5)[C@@]12O` [BN 52021, ginkolide B]: in experiment [1], the “mc-PAF-induced PGE2 release” value is given as “no significant effect; also recorded: did not significantly influence; also recorded: do not attenuate”, the “AA-induced PGE2 release” value is “had no effect” and the “lyso-PAF-induced PGE2 release” value is “had no effect”. In addition, in experiment [1] (no mc-PAF), the “PGE2 release, antagonist administered alone” value is reported as “PGE2 release was increased”. Besides, the “nociceptive behavior during the tonic or late phase” value in experiment [2] is “decreases nociceptive behavior”. Besides, in experiment [3], the “nociceptive response (paw elevation time), early phase” value is reported as “not significantly affected”; the “nociceptive response (paw elevation time), late phase” value is “significantly shorter times; also recorded: decreased nociceptive behavior”; the “dose-response relationship of decrease in nociceptive behavior” value is “a dose-response relationship was not revealed”. The nociceptive response entry in experiment [4] is “not”. Moreover, in experiment [5] (administered to the brain (Example 4)), the “comparative efficacy when administered to the brain” value is “more effective than BN 50730”. Moreover, the “paw elevation at 50 min post-formalin” value in experiment [5] (lateral ventricle, 1 μg) is “decreased paw elevation”. Moreover, in experiment [5], the “nociceptive response (paw elevation), group effect” value is recorded as “significantly affected”. The “levels of paw elevation between 30 and 45 min post-formalin” value in experiment [5] (lateral ventricle, 10 and 1 μg, independent t-tests) is reported as “significantly attenuated”. Further, in experiment [5] (lateral ventricle, 10 or 1 μg, Scheffe's post-hoc), the “nociceptive responses compared with control-treated rats” value is reported as “significantly diminished”.
